In patent US10117430B2, “Malononitrile compounds for controlling animal pests” (BASF SE, priority 2012, dated 2018):

Columns and labels:
Type in all cases: in vivo
[1] = system: Tobacco Budworm (Heliothis virescens); assay: B.8 Tobacco budworm test on sprayed cotton plants; settings: 96 h, in comparison with untreated controls, 4 days after treatment
Protocol: B.8 Tobacco Budworm (Heliothis virescens) I
The active compounds were formulated in cyclohexanone as a 10,000 ppm solution supplied in tubes. The tubes were inserted into an automated electrostatic sprayer equipped with an atomizing nozzle and they served as stock solutions for which lower dilutions were made in 50% acetone:50% water (v/v). A nonionic surfactant (Kinetic®) was included in the solution at a volume of 0.01% (v/v). Cotton plants were grown 2 plants to a pot and selected for treatment at the cotyledon stage. Test solutions were sprayed onto the foliage by an automated electrostatic plant sprayer equipped with an atomizing spray nozzle. The plants were dried in the sprayer fume hood and then removed from the sprayer. Each pot was placed into perforated plastic bags with a zip closure. About 10 to 11 budworm larvae were placed into the bag and the bags zipped closed. Test plants were maintained in a growth room at about 25° C. and about 20-40% relative humidity for 4 days, avoiding direct exposure to fluorescent light (24 hour photoperiod) to prevent trapping of heat inside the bags. Mortality and reduced feeding were assessed 4 days after treatment, compared to untreated control plants.

[2] = system: Green Peach Aphid (Myzus persicae); assay: B.3 Green peach aphid systemic test, artificial diet under membrane; settings: 72 h, concentration of the test solution 2500 mg/L, 3 days
How it was run: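 Systemic uptake from artificial liquid diet beneath a membrane, compound formulated in 75% water/25% DMSO and added to diet at several concentrations, two replicates. 5-8 adult aphids fed on treated diet for 3 days at about 23±1° C. and 50±5% RH. Mortality and fecundity scored visually.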

[3] = system: Orchid Thrips (Dichromothrips corbetti); assay: B.4 Orchid thrips floral-immersion test; settings: 96 h, in comparison with untreated controls, after 4 days
How it was run: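 Orchid flowers dipped in 300 ppm compound (acetone:water 1:1, 0.01% surfactant), dried, then caged with 10-15 adult D. corbetti from a lab colony. Held under continuous light at about 28° C. Live thrips counted after 4 days; mortality extrapolated from pre-treatment numbers.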

[4] = system: Boll Weevil (Anthonomus grandis); assay: B.9 Boll weevil microtiter diet test, egg and larval mortality; settings: 120 h, in comparison with untreated controls, egg and larval mortality after 5 days
How it was run: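 Insect diet carrying 20-30 A. grandis eggs per well was sprayed with compounds formulated in 75% water/25% DMSO, at various concentrations with two replicates. Plates were held at about 23±1° C and 50±5% RH for 5 days. Egg and larval mortality were then scored visually.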

[5] = system: Silverleaf Whitefly (Bemisia argentifolii); assay: B.5 Silverleaf whitefly test on sprayed cotton plants; settings: 72 h, in comparison with untreated controls, 3 days after treatment
How it was run: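 Cotyledon-stage cotton plants were electrostatically sprayed with compound diluted from a 10,000 ppm cyclohexanone stock into 50% acetone/water with 0.01% nonionic surfactant. After drying, 10–12 adult whiteflies (3–5 days old) were released onto each plant. Mortality was scored after 3 days at 25 °C and 20–40% RH against untreated plants.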

[6] = system: Cowpea Aphid (Aphis craccivora); assay: B.1 Cowpea aphid spray test on potted cowpea plants; settings: in comparison with untreated controls, population reduction assessed after 24, 72 and 120 hours
Protocol: B.1 Cowpea Aphid (Aphis craccivora)
The active compounds were formulated in 50:50 (v/v) acetone:water. The test solution was prepared at the day of use. Potted cowpea plants colonized with approximately 100-150 aphids of various stages were sprayed after the pest population has been recorded. Population reduction was assessed after 24, 72, and 120 hours.

[7] = system: Green Peach Aphid (Myzus persicae); assay: B.13 Green peach aphid test on sprayed bell pepper plants; settings: 120 h, in comparison with untreated controls, after 5 days
Description: B.13 Green Peach Aphid (Myzus persicae)
The active compounds were formulated in cyclohexanone as a 10,000 ppm solution supplied in tubes. The tubes were inserted into an automated electrostatic sprayer equipped with an atomizing nozzle and they served as stock solutions for which lower dilutions were made in 50% acetone:50% water (v/v). A nonionic surfactant (Kinetic®) was included in the solution at a volume of 0.01% (v/v). Bell pepper plants at the first true-leaf stage were infested prior to treatment by placing heavily infested leaves from the main colony on top of the treatment plants. Aphids were allowed to transfer overnight to accomplish an infestation of 30-50 aphids per plant and the host leaves were removed. The infested plants were then sprayed by an automated electrostatic plant sprayer equipped with an atomizing spray nozzle. The plants were dried in the sprayer fume hood, removed, and then maintained in a growth room under fluorescent lighting in a 24-hr photoperiod at about 25° C. and about 20-40% relative humidity. Aphid mortality on the treated plants, relative to mortality on untreated control plants, was determined after 5 days.

[8] = system: Yellow Fever Mosquito (Aedes aegypti); assay: whole plant or invertebrate; settings: 48 h, in comparison with untreated controls, larval mortality after 2 days
How it was run: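 Freshly hatched larvae (5-15 per well) in 200 μl tap water; compounds formulated in 75% water/25% DMSO and sprayed at 2.5 μl per well at several concentrations, two replicates. Incubated 2 days at 28±1° C., 80±5% RH; larval mortality scored visually.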

[9] = system: Southern Armyworm (Spodoptera eridania); assay: B.6 Southern armyworm test on sprayed lima bean plants; settings: 96 h, in comparison with untreated controls, 4 days after treatment
Protocol: B.6 Southern Armyworm (Spodoptera eridania)
The active compounds were formulated in cyclohexanone as a 10,000 ppm solution supplied in 1.3 ml ABgene® tubes. These tubes were inserted into an automated electrostatic sprayer equipped with an atomizing nozzle and they served as stock solutions for which lower dilutions were made in 50% acetone:50% water (v/v). A nonionic surfactant (Kinetic®) was included in the solution at a volume of 0.01% (v/v). Lima bean plants (variety Sieva) were grown 2 plants to a pot and selected for treatment at the 1st true leaf stage. Test solutions were sprayed onto the foliage by an automated electrostatic plant sprayer equipped with an atomizing spray nozzle. The plants were dried in the sprayer fume hood and then removed from the sprayer. Each pot was placed into perforated plastic bags with a zip closure. Ten to 11 armyworm larvae were placed into the bag and the bags zipped closed. Test plants were maintained in a growth room at 25° C. and 20-40% relative humidity for 4 days, avoiding direct exposure to fluorescent light (24 hour photoperiod) to prevent trapping of heat inside the bags. Mortality and reduced feeding were assessed 4 days after treatment, compared to untreated control plants.

[10] = system: Cotton Aphid (Aphis gossypii, Mixed Life Stages); assay: B.14 Cotton aphid test on sprayed cotton plants; settings: 120 h, in comparison with untreated controls, after 5 days
Protocol: B.14 Cotton Aphid (Aphis gossypii, Mixed Life Stages)
The active compounds were formulated in cyclohexanone as a 10,000 ppm solution supplied in 1.3 ml ABgene® tubes. These tubes were inserted into an automated electrostatic sprayer equipped with an atomizing nozzle and they served as stock solutions for which lower dilutions were made in 50% acetone:50% water (v/v). A nonionic surfactant (Kinetic®) was included in the solution at a volume of 0.01% (v/v). Cotton plants at the cotyledon stage were infested with aphids prior to treatment by placing a heavily infested leaf from the main aphid colony on top of each cotyledon. Aphids were allowed to transfer overnight to accomplish an infestation of 80-100 aphids per plant and the host leaf was removed. The infested plants were then sprayed by an automated electrostatic plant sprayer equipped with an atomizing spray nozzle. The plants were dried in the sprayer fume hood, removed from the sprayer, and then maintained in a growth room under fluorescent lighting in a 24-hr photoperiod at 25° C. and 20-40% relative humidity. Aphid mortality on the treated plants, relative to mortality on untreated control plants, was determined after 5 days.

[11] = system: Rice brown plant hopper (Nilaparvata lugens); assay: B.11 Rice brown plant hopper test on sprayed rice seedlings; settings: in comparison with untreated controls, after 72 hours
How it was run: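 Compounds formulated in 50:50 acetone:water with 0.1% vol/vol surfactant and sprayed onto potted rice seedlings. Air-dried plants were caged, infested with 10 adults and held at about 28-29 °C, 50-60% RH. Percent mortality scored after 72 hours.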

[12] = system: Vetch Aphid (Megoura viciae); assay: B.7 Vetch aphid test on broad bean leaf disks; settings: foliar, 120 h, in comparison with untreated controls, 5 days
How it was run: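 Broad bean leaf disks sprayed with compounds in 25% DMSO/75% water at several concentrations, two replicates, then air-dried. Infested with 5-8 adult Megoura viciae and held 5 days at about 23±1 °C and 50±5% RH. Mortality and fecundity scored visually.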

[13] = system: Green Soldier Stink Bug (Nezara viridula); assay: B.15 Green soldier stink bug test on sprayed soybean pods; settings: 120 h, in comparison with untreated controls, after 5 days
[14] = system: Red Spider Mite (Tetranychus kanzawai); assay: B.10 Red spider mite test on sprayed cowpea beans; settings: in comparison with untreated controls, 72 hours after treatment
Protocol: B.10 Red Spider Mite (Tetranychus kanzawai)
The active compound is dissolved at the desired concentration in a mixture of 1:1 (vol:vol) distilled water:acetone. Add surfactant (Alkamuls® EL 620) at the rate of 0.1% (vol/vol). The test solution is prepared at the day of use. Potted cowpea beans of 7-10 days of age were cleaned with tap water and sprayed with 5 ml of the test solution using air driven hand atomizer. The treated plants were allowed to air dry and afterwards inculated with 20 or more mites by clipping a cassava leaf section with known mite population. Treated plants were placed inside a holding room at about 25-27° C. and about 50-60% relative humidity. Percent mortality was assessed 72 hours after treatment.

[15] = system: Mediterranean Fruitfly (Ceratitis capitata); assay: B.2 Mediterranean fruitfly microtiter diet test, egg and larval mortality; settings: 120 h, in comparison with untreated controls, egg and larval mortality after 5 days
How it was run: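 Microtiter plates held insect diet with 50-80 C. capitata eggs; compounds in 75% water/25% DMSO were sprayed onto the diet at various concentrations, two replicates. Plates kept about 5 days at 28±1 °C and 80±5% RH, then egg and larval mortality scored visually.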

N#CC(C#N)(Cc1ccc(F)cn1)c1ccccc1 [II-11]
≥ 75%: mortality at 2500 ppm [1] | mortality at 2500 µg/mL [2]

N#CC(C#N)(Cc1ccc(F)nc1F)c1cc(F)cc(F)c1 [II-52]
≥ 75%: mortality at 500 ppm [3] | mortality at 2500 ppm [1] | mortality at 2500 ppm [4] | mortality at 2500 µg/mL [2]

CC(c1ccc(F)cn1)C(C#N)(C#N)c1ccccc1 (stereo not drawn) [II-8]
≥ 75%: mortality at 500 ppm [5] | mortality at 500 ppm [6] | mortality at 300 ppm [7] | mortality at 2500 ppm [8] | mortality at 300 ppm ([9]; 300 ppm) | mortality at 500 ppm ([9]; 500 ppm) | mortality at 300 ppm [10] | mortality at 2500 ppm [4] | mortality at 300 ppm [11] | mortality at 2500 µg/mL [2]

N#CC(C#N)(Cc1ccc(C(F)(F)F)nc1)c1ccccc1 [II-3]
≥ 75%: mortality at 500 ppm [6] | mortality at 2500 ppm [8] | mortality at 500 ppm [3] | mortality at 2500 ppm [1] | mortality at 2500 ppm [4] | mortality at 2500 ppm [12] | mortality at 500 ppm [13] | mortality at 300 ppm [11]

N#CC(C#N)(Cc1cnc(C(F)(F)F)cn1)c1ccccc1 [II-26]
≥ 75%: mortality at 500 ppm [5] | mortality at 500 ppm [6] | mortality at 2500 ppm [8] | mortality at 500 ppm [3] | mortality at 2500 ppm [1] | mortality at 500 ppm [14] | mortality at 2500 ppm [15] | mortality at 2500 ppm [4] | mortality at 2500 ppm [12]
